pIC50: −log10 of the molar value.

For the assay, the system named is NCI-H358 cells (NSCLC, G12C). Put plainly: NCI-H358 CTG proliferation assay (120 h), assay 1. In kind it is cell-based. The following applies: Homo sapiens, CellTiter-Glo, 96 well, 2000 cells per well. The method, then:
NCI-1H358 cells (ATCC No. CRL-5807) are dispensed into white bottom opaque 96 well plates (Perkin Elmer cat no. 5680) at a density of 2000 cells per well in 100 μL RPM 1-1640 ATCC-Formulation (Gibco #A10491)+10% FCS (fetal calf serum) (assay 1) or into black 384-well plates, flat and clear bottom (Greiner, PNr. 781091) at a density of 200 cells per well in 60 μl RPMI-1640 ATCC-Formulation (Gibco #A10491)+10% FCS (fetal calf serum) (assay 2). […] Compounds (10 mM stock in DMSO) are added at logarithmic dose series using the HP Digital Dispenser D300 (Tecan) (assay 1) or the ECHO acoustic liquid handler system (Beckman Coulter) (assay 2), normalizing for added DMSO and including DMSO controls. For the TO time point measurement, untreated cells are analyzed at the time of compound addition. Plates are incubated for 120 h, and cell viability is measured using CellTiter-Glo luminescent cell viability reagent (Promega product code G7570). Viability (stated as percent of control) is defined as relative luminescence units RLU of each well divided by the RLU of cells in DMSO controls. IC50 values are determined from viability measurements by non-linear regression using a four-parameter model.
(In general: ATP-based viability assays read luminescence as a measure of living cells.)

For `C[C@H]1CNCCN1c1nccc(-c2noc3c2CCC[C@@]32CCCc3sc(N)c(C#N)c32)n1` [IIf-1], the pIC50 is 6.08.

The pIC50 is −log10 of the IC50, conventionally taken in molar units. Low values mean a high IC50, high ones a low IC50.

Values taken from patent publication US20250129096A1, “ANNULATED 2-AMINO-3-CYANO THIOPHENES AND DERIVATIVES FOR THE TREATMENT OF CANCER” (Boehringer Ingelheim Int'l GmbH Corp., priority 2021, published 2025).
